Key:
[1] = xn = mol fraction of the nth substance listed; settings: for surface tension liquid-gas: Ring tensiometer; for viscosity / mass density: 101.3 kPa, Liquid; for viscosity: Capillary tube (Ostwald / Ubbelohde) method; for mass density: Vibrating tube method
[2] = refractive index (Na D-line) (dimensionless); xn = mol fraction of the nth substance listed; settings: 101.3 kPa, Liquid, Standard Abbe refractometry

C[P+](c1ccccc1)(c1ccccc1)c1ccccc1.[Br-] [methyltriphenylphosphonium bromide] + NCCO
Settings	mass density, [1] [kg/m3]	refractive index, [2]	surface tension liquid-gas, [1] [mN/m]	viscosity, [1] [mPa·s]
298.15 K, x1 = 0.11	1092.9	1.50265	50.3	27.7
298.15 K, x1 = 0.13	1099.8	1.50587	50.2	28
298.15 K, x1 = 0.14	1107.4	1.51187	49.3	35.5
298.15 K, x1 = 0.16	1195.8	1.56644	48.9	128.9
308.15 K, x1 = 0.11	1085	1.49911	49.5	20
308.15 K, x1 = 0.13	1091.9	1.50221	49.3	20
308.15 K, x1 = 0.14	1100	1.50794	48.4	20.7
308.15 K, x1 = 0.16	1187.9	1.56247	48	84.9
318.15 K, x1 = 0.11	1077.1	1.49546	48.6	13.6
318.15 K, x1 = 0.13	1083.8	1.49935	48.2	13.1
318.15 K, x1 = 0.14	1092.2	1.50501	47.6	13.6
318.15 K, x1 = 0.16	1180.1	1.55846	47.2	37.9
328.15 K, x1 = 0.11	1068.9	1.49224	47.8	9.5
328.15 K, x1 = 0.13	1075.8	1.49519	47.2	9.1
328.15 K, x1 = 0.14	1084.2	1.50071	46.7	10
328.15 K, x1 = 0.16	1172.3	1.55518	46.4	25.4
338.15 K, x1 = 0.11	1060.8	1.48802	46.9	7
338.15 K, x1 = 0.13	1067.6	1.49063	46.3	6.9
338.15 K, x1 = 0.14	1076.1	1.49733	45.9	7.5
338.15 K, x1 = 0.16	1164.5	1.55159	45.6	15.6
348.15 K, x1 = 0.11	1052.7	1.48405	46.2	5.4
348.15 K, x1 = 0.13	1059.4	1.48631	45.3	5.4
348.15 K, x1 = 0.14	1068	1.49343	44.9	5.6
348.15 K, x1 = 0.16	1156.6	1.54699	44.8	10.7
358.15 K, x1 = 0.11	1044.7	1.47988	45.3	4.7
358.15 K, x1 = 0.13	1051.1	1.48215	44.4	4.8
358.15 K, x1 = 0.14	1059.8	1.49027	44.2	4.9
358.15 K, x1 = 0.16	1148.8	1.54286	44	9.1

CCCC[N+](CCCC)(CCCC)CCCC.[Br-] [tetrabutylammonium bromide] + NCCO
Settings	mass density, [1] [kg/m3]	refractive index, [2]	surface tension liquid-gas, [1] [mN/m]	viscosity, [1] [mPa·s]
298.15 K, x1 = 0.14	1048.1	1.48383	36.1	22
298.15 K, x1 = 0.16	1056.6	1.4877	36	52.9
298.15 K, x1 = 0.2	1060.9	1.4881	35.8	80.2
298.15 K, x1 = 0.25	1061.6	1.49229	35.7	106.8
308.15 K, x1 = 0.14	1038.7	1.48033	35.7	15.5
308.15 K, x1 = 0.16	1048	1.48423	35.6	31
308.15 K, x1 = 0.2	1053.6	1.48464	35.4	54.7
308.15 K, x1 = 0.25	1054.5	1.48876	35.3	77
318.15 K, x1 = 0.14	1028.9	1.47704	35.4	12
318.15 K, x1 = 0.16	1041.5	1.48115	35.2	21.1
318.15 K, x1 = 0.2	1046.4	1.48169	35	38.2
318.15 K, x1 = 0.25	1047.3	1.48547	34.8	53.57
328.15 K, x1 = 0.14	1018.5	1.47349	35.1	9
328.15 K, x1 = 0.16	1034.1	1.47778	34.9	14.4
328.15 K, x1 = 0.2	1039.2	1.47851	34.6	20.1
328.15 K, x1 = 0.25	1040.2	1.48242	34.5	35.29
338.15 K, x1 = 0.14	1010.2	1.46989	34.7	6.8
338.15 K, x1 = 0.16	1026.7	1.47385	34.6	9
338.15 K, x1 = 0.2	1032	1.47541	34.3	13.4
338.15 K, x1 = 0.25	1033.1	1.47966	34	18.6
348.15 K, x1 = 0.14	1001.1	1.46595	34.4	5.7
348.15 K, x1 = 0.16	1019.3	1.46989	34.2	7.5
348.15 K, x1 = 0.2	1024.7	1.47164	33.9	10.5
348.15 K, x1 = 0.25	1026.1	1.47651	33.6	13.8
358.15 K, x1 = 0.14	992.1	1.46234	34.1	5.2
358.15 K, x1 = 0.16	1012	1.46632	33.9	5.2
358.15 K, x1 = 0.2	1017.4	1.46897	33.5	8
358.15 K, x1 = 0.25	1019	1.47303	33.2	10.2

C[N+](C)(C)CCO.[Cl-] [choline chloride] + NCCO
Settings	mass density, [1] [kg/m3]	refractive index, [2]	surface tension liquid-gas, [1] [mN/m]	viscosity, [1] [mPa·s]
298.15 K, x1 = 0.11	1062.8	1.47733	49.6	32.7
298.15 K, x1 = 0.13	1065	1.47875	49.2	37.7
298.15 K, x1 = 0.14	1069	1.48117	48.7	36.7
298.15 K, x1 = 0.16	1076.7	1.48388	48.2	48.5
308.15 K, x1 = 0.11	1055.2	1.47404	48.8	22.6
308.15 K, x1 = 0.13	1057.6	1.47541	48.5	25.5
308.15 K, x1 = 0.14	1061.7	1.47797	48	25
308.15 K, x1 = 0.16	1069.6	1.47998	47.6	28.8
318.15 K, x1 = 0.11	1047.8	1.47092	47.9	15
318.15 K, x1 = 0.13	1050.3	1.47217	47.8	13.8
318.15 K, x1 = 0.14	1054.4	1.47445	47.4	16.8
318.15 K, x1 = 0.16	1062.7	1.47623	46.9	20.1
328.15 K, x1 = 0.11	1040.4	1.46759	47.2	10.5
328.15 K, x1 = 0.13	1043	1.46908	47.1	10.1
328.15 K, x1 = 0.14	1047.2	1.47101	46.7	11.2
328.15 K, x1 = 0.16	1055.9	1.47257	46.2	13.5
338.15 K, x1 = 0.11	1033	1.46419	46.4	7.1
338.15 K, x1 = 0.13	1035.6	1.46539	46.4	7.9
338.15 K, x1 = 0.14	1039.9	1.46761	46	8.8
338.15 K, x1 = 0.16	1049	1.46842	45.6	9.8
348.15 K, x1 = 0.11	1025.6	1.46095	45.8	5.9
348.15 K, x1 = 0.13	1028.3	1.46171	45.8	6
348.15 K, x1 = 0.14	1032.6	1.46444	45.3	6.6
348.15 K, x1 = 0.16	1042	1.46421	45	7.5
358.15 K, x1 = 0.11	1018.1	1.45742	45	4.7
358.15 K, x1 = 0.13	1020.9	1.45833	44.9	5.2
358.15 K, x1 = 0.14	1025.3	1.46049	44.7	5.3
358.15 K, x1 = 0.16	1035	1.46031	44.4	5.9
